“Also recorded” adds a separate entry of the source.
How the values were obtained:
PR = settings: cited from earlier work
human estrogen receptor [1] = experiment: ER transcriptional activity on MMTV-ERE-LUC, CV-1 cells, ER co-expressed with PR-A; assay type: cell-based
Protocol: (§1) All values were normalized for transfection efficiency by simultaneous estimation of luciferase and β-galactocidase activities. The relative luciferase activity is calculated by dividing the normalized luciferase value at a given point by that obtained in the absence of transfected receptor or ligand. Data shown represent the mean +/- the average deviation from the mean of triplicate estimations.
(§2) Experimental protocols and data calculation are as described in FIG. 11. The experiment detailed above is representative of independent assays (N>3). Data shown represent the mean +/- the average deviation from the mean of triplicate estimations.
Vegeto et al., supra. Cells were plated into 96-well tissue culture plates. The vector DNA was introduced into the CV-1 cells using calcium phosphate coprecipitation as described herein. More specifically, 20 μg of DNA/ml of transfection buffer were used in each transfection. Each transfection mix included 0.5 μg of pRST7hER, 9.5 μg of MMTV-ERE-LUC, 5 μg of pCH110, (which contains the gene for β-galactosidase) as an internal control and 5 μg of PGEM4 DNA as a carrier. Depending on the experiment, 0.1 μg pSVhPR-A or pSVhPR-B and an amount of pSVXV2neo (Dr. Bert O'Malley, Baylor College of Medicine) to bring the total amount of DNA to 20 μg was added. The concentration of pXVhPR-A vector chosen was determined by performing the experiment at several different concentrations of vector, and then using that concentration that was optimal for transcriptional readout. The concentration of pSVhPR-B vector was chosen based upon the amount required to give an identical amount of immunoreactive PR-A and PR-B. After transfections using a Biomek 1000 automated laboratory workstation, the cells were incubated with the precipitate for 6 hours. Cells were washed with PBS and incubated for 40 hours with or without hormones as indicated. Cell extracts were prepared as previously described herein and assayed for luciferase (LUC) and β-galactosidase activities. The Normalized LUC activity was calculated by dividing the raw luciferase (×10^4) units for each point by the β-galactosidase activity [(OD415 nm ×10^5)/time min.] at that point.

human androgen receptor [2] = molecular target: T1, human androgen receptor (Homo sapiens, UniProt P10275); experiment: AR transcriptional activity on MMTV-LUC, CV-1 cells, AR co-expressed with PR-A; assay type: cell-based; settings: AR plus PR-A, FIG. 10B
T1 sequence (P10275 1-920): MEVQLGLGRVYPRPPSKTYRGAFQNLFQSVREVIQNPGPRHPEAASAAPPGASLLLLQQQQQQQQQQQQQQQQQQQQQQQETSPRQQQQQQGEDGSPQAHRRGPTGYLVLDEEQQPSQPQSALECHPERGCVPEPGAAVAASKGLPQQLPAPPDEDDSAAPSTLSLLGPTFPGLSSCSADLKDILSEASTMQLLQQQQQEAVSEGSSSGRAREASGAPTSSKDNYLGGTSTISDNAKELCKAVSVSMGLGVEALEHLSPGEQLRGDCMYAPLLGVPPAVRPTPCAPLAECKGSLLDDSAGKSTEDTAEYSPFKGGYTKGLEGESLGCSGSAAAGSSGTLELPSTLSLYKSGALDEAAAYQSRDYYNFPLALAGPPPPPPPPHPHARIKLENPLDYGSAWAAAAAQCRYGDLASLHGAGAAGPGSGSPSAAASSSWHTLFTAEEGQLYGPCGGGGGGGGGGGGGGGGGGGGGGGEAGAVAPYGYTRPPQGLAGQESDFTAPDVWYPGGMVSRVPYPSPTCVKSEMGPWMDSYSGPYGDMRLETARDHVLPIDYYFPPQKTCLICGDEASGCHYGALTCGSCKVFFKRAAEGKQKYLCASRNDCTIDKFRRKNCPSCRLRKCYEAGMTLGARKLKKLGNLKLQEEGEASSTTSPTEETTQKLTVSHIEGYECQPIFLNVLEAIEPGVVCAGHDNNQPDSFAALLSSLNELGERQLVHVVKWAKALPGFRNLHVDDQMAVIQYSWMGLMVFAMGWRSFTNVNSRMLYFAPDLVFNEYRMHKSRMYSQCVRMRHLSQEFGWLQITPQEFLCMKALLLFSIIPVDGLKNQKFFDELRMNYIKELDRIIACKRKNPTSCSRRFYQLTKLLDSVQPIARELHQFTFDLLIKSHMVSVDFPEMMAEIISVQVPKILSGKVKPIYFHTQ
Protocol: (§3) FIGS. 10A-10B are a series of graphs showing CV-1 cells that were transiently transfected with an expression vector for the human androgen receptor (pRShAR) alone, or in combination with phPR-A together with 5 µg/ml of the MMTV-LUC reporter and 5 µg/ml of pCH110 as an internal control. […] The relative luciferase activity is calculated by dividing the normalized luciferase value at a given point by that obtained in the absence of transfected receptor or ligand. […] The data are presented as percent (%) activation, where 100% represents the maximal induction achieved by human androgen receptor at 10^ -8 M DHT. The experimental data represents mean values +/- the average deviation from the mean of quadruplicate estimations;
(§4) Cells were seeded in 12-well, 96-well or 10 cm tissue culture plates. […] 20 μg of DNA/ml of transfection buffer were used in each transfection reaction. In this mix, the concentration of the luciferase plasmids and that of the internal control plasmid pCH110 (Pharmacia, Inc.), which contains the gene for the β-galactosidase enzyme, remained constant ([…] of each plasmid DNA), while the receptor plasmid concentration varied as indicated for each experiment. […]

AR = settings: stated without data; cited from earlier work
[3] = tested on: glucocorticoid receptor (GR); experiment: GR transcriptional activity on MMTV-LUC, CV-1 cells, GR co-expressed with PR-A; assay type: cell-based
Protocol: (§5) Cells were seeded in 12-well, 96-well or 10 cm tissue culture plates. […] 20 μg of DNA/ml of transfection buffer were used in each transfection reaction. In this mix, the concentration of the luciferase plasmids and that of the internal control plasmid pCH110 (Pharmacia, Inc.), which contains the gene for the β-galactosidase enzyme, remained constant ([…] of each plasmid DNA), while the receptor plasmid concentration varied as indicated for each experiment. Different amounts of receptor parental plasmid, pSV2-neo (Dr. Bert O'Malley, Baylor College of Medicine, Houston, Tex.) was included to keep constant the total amount of the SV40 enhancer vectors. pGEM4 plasmid DNA (Promega Biotech, Madison, Wis.) was added to balance the total DNA concentration to 20 g/reaction. For the 96-well plate experiments, transfections were performed on a Biomek 1000 Automated Laboratory Workstation (Beckman Instruments, Fullerton, Calif.).
(§6) Cells were seeded 24 hours prior to transfection in the fiat-bottom tissue culture plates ([…]) in phenol red-free DMEM containing 10% FCS. […] Using calcium phosphate co-precipitation, DNA solution was added dropwise with vortexing into an equal volume of 2X HBS pH 6.9 (280 mM NaCl. 50 mM HEPES, 1.5 mM Na2 HPO4) and precipitates were allowed to form for 20 minutes. Cells were transfected ( […] of DNA mix/well) for 6 hours and then washed with phosphate-bufferedsaline (PBS) to remove the precipitate. Cells were incubated for an additional 24 hours in phenol red-free medium containing 10% charcoal-treated FCS, with or without hormones as indicated in the text. Cell extracts were prepared as described by Berger et al., Supra, and assayed for luciferase and β-galactosidase activities. All determinations were performed in triplicates in at least two independent experiments, and were normalized for transfection efficiency by using β-galactosidase as an internal control.

human androgen receptor [4] = molecular target: T1, human androgen receptor; experiment: AR transcriptional activity on MMTV-LUC, CV-1 cells, AR alone; assay type: cell-based; settings: FIG. 10
Protocol: as §3, §4

ER = ER transcriptional activity on MMTV-ERE-LUC in HepG2 and HS578T cells; assay type: cell-based; settings: data not shown
[5] = molecular target: T2, glucocorticoid receptor (GR) (Homo sapiens, UniProt P04150)
T2 sequence (P04150 1-777): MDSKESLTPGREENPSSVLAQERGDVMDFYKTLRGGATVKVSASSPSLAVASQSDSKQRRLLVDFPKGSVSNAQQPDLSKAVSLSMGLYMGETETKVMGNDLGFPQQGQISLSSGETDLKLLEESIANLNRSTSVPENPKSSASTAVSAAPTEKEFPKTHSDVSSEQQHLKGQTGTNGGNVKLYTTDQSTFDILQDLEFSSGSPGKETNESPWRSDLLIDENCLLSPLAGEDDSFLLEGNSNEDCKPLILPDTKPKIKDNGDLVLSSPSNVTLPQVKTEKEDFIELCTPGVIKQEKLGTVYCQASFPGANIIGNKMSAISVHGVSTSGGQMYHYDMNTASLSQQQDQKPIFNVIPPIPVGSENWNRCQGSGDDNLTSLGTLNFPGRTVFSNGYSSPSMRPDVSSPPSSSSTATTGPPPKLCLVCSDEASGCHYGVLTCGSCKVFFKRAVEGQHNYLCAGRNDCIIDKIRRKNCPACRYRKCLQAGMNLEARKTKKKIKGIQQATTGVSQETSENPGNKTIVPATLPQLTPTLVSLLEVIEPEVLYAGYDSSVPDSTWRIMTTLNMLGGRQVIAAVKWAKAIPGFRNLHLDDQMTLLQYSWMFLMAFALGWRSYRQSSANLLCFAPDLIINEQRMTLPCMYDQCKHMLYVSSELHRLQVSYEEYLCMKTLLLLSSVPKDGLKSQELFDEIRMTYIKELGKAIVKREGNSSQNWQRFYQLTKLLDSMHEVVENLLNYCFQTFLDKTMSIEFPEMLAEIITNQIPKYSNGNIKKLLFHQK
Protocol: as §5, §6

human estrogen receptor [6] = molecular target: T3, human estrogen receptor (Homo sapiens, UniProt P03372); experiment: ER transcriptional activity on MMTV-ERE-LUC, CV-1 cells, ER alone; assay type: cell-based; settings: 10^-7 M 17-β-estradiol, FIG. 11B
T3 construct: expressed in transfected cells; host or cells: CV-1
T3 sequence (P03372 1-595): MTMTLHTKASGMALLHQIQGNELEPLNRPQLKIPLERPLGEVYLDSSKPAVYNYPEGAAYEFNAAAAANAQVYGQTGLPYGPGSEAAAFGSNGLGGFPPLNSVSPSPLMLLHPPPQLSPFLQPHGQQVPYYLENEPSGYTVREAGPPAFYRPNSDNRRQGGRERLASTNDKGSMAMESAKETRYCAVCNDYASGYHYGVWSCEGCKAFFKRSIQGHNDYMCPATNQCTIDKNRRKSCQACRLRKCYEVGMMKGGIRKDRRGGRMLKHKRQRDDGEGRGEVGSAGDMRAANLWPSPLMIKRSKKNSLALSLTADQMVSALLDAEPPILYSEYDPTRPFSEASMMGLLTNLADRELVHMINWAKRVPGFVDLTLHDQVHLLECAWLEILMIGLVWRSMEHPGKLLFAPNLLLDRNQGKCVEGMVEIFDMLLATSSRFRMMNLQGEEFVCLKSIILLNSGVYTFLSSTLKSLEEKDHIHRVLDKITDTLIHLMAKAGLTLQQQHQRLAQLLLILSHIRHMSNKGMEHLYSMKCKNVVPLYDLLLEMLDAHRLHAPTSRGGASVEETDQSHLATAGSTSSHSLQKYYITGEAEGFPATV
Protocol: as §1, §2
(§7) Vegeto et al., supra. Cells were plated into 96-well tissue culture plates. The vector DNA was introduced into the CV-1 cells using calcium phosphate coprecipitation as described herein. More specifically, 20 μg of DNA/ml of transfection buffer were used in each transfection. […] The concentration of pXVhPR-A vector chosen was determined by performing the experiment at several different concentrations of vector, and then using that concentration that was optimal for transcriptional readout. […] The Normalized LUC activity was calculated by dividing the raw luciferase (×10^4) units for each point by the β-galactosidase activity [(OD415 nm ×10^5)/time min.] at that point.

human estrogen receptor [7] = molecular target: T3, human estrogen receptor; experiment: ER transcriptional activity on MMTV-ERE-LUC, CV-1 cells, ER co-expressed with PR-B; assay type: cell-based; settings: FIG. 11B
Protocol: as §1
as §7, with “transfection. Each transfection mix included 0.5 μg of pRST7hER, 9.5 μg of MMTV-ERE-LUC, 5 μg of pCH110, (which contains the gene for β-galactosidase) as an internal control and 5 μg of PGEM4 DNA as a carrier.” for “transfection.”

For `CN(C)c1ccc([C@H]2C[C@]3(C)[C@@H](CC[C@]3(O)CCCO)[C@@H]3CCC4=CC(=O)CCC4=C32)cc1` [ZK98299], the “effect on PR DNA binding” value (PR) is listed as “retards DNA binding; also recorded: interferes with DNA binding”, the IC50 (human estrogen receptor [1]; 10^-7 M 17-β-estradiol, read-out: half maximal inhibition (IC50) of ER in the presence of hPR-A) is listed as 3 nM and the “efficacy compared to the pure anti-estrogen ICI-164,384” value (human estrogen receptor [1]; PR-A co-expressed, 100% = 10^-7 M 17-β-estradiol + 10^-6 M ICI-164,384, FIG. 12) is listed as 70%. For the same compound, the “effect on DHT-induced AR activity in the presence of PR-A” value (human androgen receptor [2]) was “addition of PR-A to the cells increased this compound's sensitivity”, the “affinity for AR” value (AR) was “low affinity for AR” and the “inhibition of GR function via PR-A” value ([3]; MMTV promoter, dexamethasone present, FIG. 8A) was “mediated an inhibition of GR function; also recorded: promotes PR-A repressor function”. For the same compound, the “effect on DHT-induced AR activity” value (human androgen receptor [4]) was “minimal direct effects on AR transcriptional activity”, the anti-estrogenic activity (ER; HS578T cells) was “both anti-progestins functioned as anti-estrogens” and the anti-estrogenic activity (ER; HepG2 cells) was “neither anti-progestin exhibited any anti-estrogenic activity”.

For `C[C@@H]1C[C@H]2[C@@H]3CCC4=CC(=O)C=C[C@]4(C)[C@@]3(F)[C@@H](O)C[C@]2(C)[C@@]1(O)C(=O)CO` [dexamethasone], the “maximally activated GR (100% value)” value [5] was over 450 normalized response, the “maximal activity of GR (100% value)” value ([5]; cv-1 cells, 0.01 µM) was over 450 fold normalized response and the “induction of MMTV promoter activity” value ([5]; cv-1 cells, 24 h, 0.1 µM) was 450 fold. The “dexamethasone induction of GR activity, of control levels” value [3] was “about 53%”.

In the case of `CC(=O)O[C@]1(C(C)=O)CC[C@H]2[C@@H]3C[C@H](C)C4=CC(=O)CC[C@]4(C)[C@H]3CC[C@@]21C` [medroxyprogesterone acetate, Medroxyprogesterone acetate], the “anti-estrogen activity of PR agonists” value (human estrogen receptor [1]; PR-A co-expressed, 10^-7 M 17-β-estradiol, FIG. 13) is reported as “considerably less effective”.

In the case of `CCCCN(C)C(=O)CCCCCCCCCC[C@@H]1Cc2cc(O)ccc2[C@H]2CC[C@]3(C)[C@@H](O)CC[C@H]3[C@H]12` [ICI-164,384], the “inhibition of 17-β-estradiol induced ER transcriptional activation” value (human estrogen receptor [6]) is reported as “can be inhibited by addition of the pure anti-estrogen ICI-164,384”, the “effect of hPR-A co-expression on activity of ICI-164,384” value (human estrogen receptor [1]; FIG. 11B) is reported as “did not affect the activity” and the “effect of hPR-B co-expression on activity of ICI-164,384” value (human estrogen receptor [7]) is reported as “did not affect the activity”.
